Measured values taken from patent US9939427B2, “Method for evaluating the scent performance of perfumes or perfume mixtures” (Symrise AG, priority 2013, dated 2018).
“Also recorded” adds a separate entry of the source.

Tests used:
Type in all cases: cell-based
OR2L8 [1] = target: T1, OR2L8 (Homo sapiens, UniProt Q8NGY9); assay: Ca-imaging of OR2L8-transfected HEK293 cells; set-up: key to OR2L8 responded to odorant: ▪: 18 olfactory receptors responded to 32 odorants in related with specific anosmia
T1 construct: specific primers, which amplify the complete open reading frame; expressed in transfected cells; host or cells: HEK293
T1 sequence (Q8NGY9 1-312): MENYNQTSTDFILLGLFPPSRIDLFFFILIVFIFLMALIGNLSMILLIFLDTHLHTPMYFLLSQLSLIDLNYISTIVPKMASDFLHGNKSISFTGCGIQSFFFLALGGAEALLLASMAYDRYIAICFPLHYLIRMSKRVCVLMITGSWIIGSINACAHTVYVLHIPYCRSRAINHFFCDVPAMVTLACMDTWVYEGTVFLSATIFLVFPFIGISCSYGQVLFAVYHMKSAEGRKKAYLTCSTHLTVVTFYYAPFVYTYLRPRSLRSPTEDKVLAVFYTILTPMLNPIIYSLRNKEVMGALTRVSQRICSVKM
Protocol: (§1) HEK293 cells were cultivated in Petri dishes (Ø35 mm) as previously described (Benbernou et al. 2007). We grow up HEK293 cells in culture medium containing standard DMEM with 10% heat-inactivated fetal bovine serum, 2 mM L-glutamine, 100 units/ml penicillin, and 100 units/ml streptomycin in a humidified atmosphere (37° C., 5% CO2). After 2-3 days, the transfection process was carried out, whereby the cell culture was 70-80% confluent. The calciumphosphate method was applied to transfect DNA plasmid transiently in HEK293 cells in case of Ca-imaging method.
(§2) Calcium cations and phosphate anions created crystal precipitations coupled with DNA which could invade into the cells through endocytosis. Cells were transiently transfected with plasmid DNA which consists of pCI expression vector and PCR-amplified full-length cDNA of olfactory receptors candidates, and also Gα15, RTP1, Myr-Ric8A, HSC70, and m-Cherry as cofactors. The precipitation could be created after 15-20 min, with dropping the transfection solution on HEK293 cells. Before measuring by Ca-imaging cells were incubated 48-60 hours at 370 C, 5% CO2. Cationic liposome-mediated transfection method was applied to transfect DNA plasmid transiently in HANA3A cells in case of CRE-Luciferase and CRE-SEAP assays.
(§3) Calcium imaging of the transfected HEK293 cells was done by using chambers determinate an inverted microscope (Olympus; IX70) using a 10× objective (CPIanFL N Olympus). Fluorescence emission was determined every 4 s by using a CCD camera (Charge Coupled Device, C9100 Hamamatsu). The capillary tube which was responsible to supply odorants was generated closely above the cells. The columns filled with odorants, DMSO and ATP. Odorants were manually monitored to drop each 4-5 s to transfected cells. Solutions with drop wise form spread on HEK293 cells in 35 mm dishes.
(§4) In experiments, Fura-2 Acetoxymethylester (Fura-2/AM) was applied. The non-polar Fura2/AM is fluorescent but not yet calcium-sensitive. Once diffuses into cell plasma, Fura-2/AM is hydrolyzed to Fura-2 which is calcium-sensitive and functions as Ca2+ chelator. Regardless of the presence of calcium, Fura-2 emits at the wavelength of 510 nm. Once Fura-2 binds to free intracellular Ca2+ in cell plasma, its ratio of excitation at wavelengths of 340 nm and 380 nm is changed and correlated to the amount of intracellular Ca2+. According to this feature, the analysis of 340/380 nm excitation ratio for Fura-2 allows to quantify intracellular calcium levels.
(§5) In preparation for Ca-imaging measurements, transfected HEK293 cells were added 3 it Fura2/AM (3 μM) and incubated 30-45 min at 370 C, 5% CO2. After this step, experiments were carried out in a dark condition (Fura-2 is light-sensitive). After the incubation, medium of cell culture was replaced with 2 ml Ringer's solution.
(§6) Odorants were freshly prepared with DMSO as 1 M stocks solutions. Six mixtures (200 μM each chemical) were applied to cells sequentially (20 s each mixture/30 s Ringer). Those ORs tested with single odorants that had generated a response to odorant mixture group previously. Odorants were prepared in 100-200 μM concentration.
(§7) Ringer's solution was used for washing cells between measuring by two different odorants. Positive response was determined by the timing of the response, the strength of the response (more than twofold higher than the noise amplitude of the baseline), and the shape of the response curve (sharp rise in curve with gradual recovery). The typical shape of response curves was established by observing responses to repeated stimulation with 200 μM of odorants. After testing with single odorants at 100 μM, stimulating odorants were often retested at 200 μM concentrations. To confirm the result of every receptor that produced a significant response curves, the experiment was repeated for twelve times. Finally, cells were exposed to ATP (0.25 mM) which could activate P2Y receptor channel and induce Ca2+ influx into cells. […]

OR4K5 = target: T2, OR4K5 (Homo sapiens, UniProt Q8NGD3); assay: Ca-imaging of OR4K5-transfected HEK293 cells; set-up: key to OR4K5 responded to odorant: ▪: 18 olfactory receptors responded to 32 odorants in related with specific anosmia
T2 construct: specific primers, which amplify the complete open reading frame; expressed in transfected cells; host or cells: HEK293
T2 sequence (Q8NGD3 1-323): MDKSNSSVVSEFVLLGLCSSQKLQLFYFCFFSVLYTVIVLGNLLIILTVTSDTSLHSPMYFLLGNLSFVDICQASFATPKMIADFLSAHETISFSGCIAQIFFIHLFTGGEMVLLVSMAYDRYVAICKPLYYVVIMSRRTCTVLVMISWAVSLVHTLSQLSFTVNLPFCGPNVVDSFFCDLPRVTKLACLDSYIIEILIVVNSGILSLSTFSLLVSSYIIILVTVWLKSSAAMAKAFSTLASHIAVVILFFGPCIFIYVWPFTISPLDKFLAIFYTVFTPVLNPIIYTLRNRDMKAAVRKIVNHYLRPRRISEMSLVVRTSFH
Protocol: as §1
as §2, with “Cationic liposome-mediated transfection method was applied to transfect DNA plasmid transiently in HANA3A cells in case of CRE-Luciferase and CRE-SEAP assays.” left out
Calcium imaging of the transfected HEK293 cells was done by using chambers determinate an inverted microscope (Olympus; IX70) using a 10× objective (CPIanFL N Olympus). Fluorescence emission was determined every 4 s by using a CCD camera (Charge Coupled Device, C9100 Hamamatsu). […] Odorants were manually monitored to drop each 4-5 s to transfected cells. […]
In experiments, Fura-2 Acetoxymethylester (Fura-2/AM) was applied. […] According to this feature, the analysis of 340/380 nm excitation ratio for Fura-2 allows to quantify intracellular calcium levels. […]
Ringer's solution was used for washing cells between measuring by two different odorants. Positive response was determined by the timing of the response, the strength of the response (more than twofold higher than the noise amplitude of the baseline), and the shape of the response curve (sharp rise in curve with gradual recovery). […]

OR2L8 [2] = target: T1, OR2L8; assay: CRE-luciferase assay, OR2L8 in HANA3A cells; settings: 50 μM, 100 μM and 150 μM; normalized to DMSO
Protocol: as §2, with “assays. […]” for “assays.”
ORs responded by Ca-imaging with seven separate odorant mixtures formed from 66 odorants. […] Transfected HANA3A cells on poly-D-lysine-coated 96 well plates are ready for stimulation after 24 h. […] Measuring by plate reader (Luminometer). • 6. […] Measuring by plate reader (Luminometer). • 8. According to manufacturer's protocols for measuring luciferase and renilla activities, calculate normalized luciferase activity with using the formula (Ln-Lmin)/(Lmax-Lmin), where Ln is the luminescence of firefly in response to the odorant, L min is the minimum luciferase value on a plate, and L max is the maximum luciferase value on plate. […]

[3] = system: HEK293 cells transfected with all cofactors and pCI plasmids without ORs; assay: Ca-imaging of control HEK293 cells without OR; settings: odorant 200 μM, three times of measuring (Table 4, FIG. 5)
Protocol: as §1, §2, §3, §4, §5, §6, §7

OR2L8 responded to odorant (OR2L8 [1]; Ca-imaging, HEK293 cells, individual odorant 200 μM, significant response p<0.05): ▪ | Number of cell responses, Experiment (OR2L8) (OR2L8 [1]; odorant 200 μM, approximately 2000 transfected cells in three times of measuring (Table 4, FIG. 5)): 10 | OR4K5 responded to odorant (OR4K5; HEK293 cells, individual odorant 200 μM, significant response p<0.05): ▪ | Response of OR4K5 to odorant, in words (OR4K5; single odorants 200 μM): detected | CRE-luciferase (cAMP assay) response of OR2L8 (OR2L8 [2]): weak response
Substance: Ysamber K [Yasamber K]
Response of OR2L8 to odorant, in words (OR2L8 [1]; Ca-imaging, single odorants 200 μM): Ca2+ concentration increased; also recorded: detected | Number of cell responses, Control [3]: 2
